Measured values taken from patent US4803303A, “N-substituted pseudo-aminosugars, their production and use” (Takeda Chemical Industries, Ltd., priority 1981, dated 1989).
pIC50: −log10 of the molar value. Where a name gives a salt, the structure may show the parent alone.

What follows are molecules tested against maltase (from porcine intestinal mucosa) (assay: inhibitory activity against maltase prepared from porcine intestinal mucosa (substrate maltose)). Conditions: given in the examples; read-out: IC50 (maltase).
Format: biochemical
Description: (§1) The inhibitory activities of the compounds of this invention against α-glucosidase (yeast, type I, produced by Sigma Chemical Co. the United States of America) as well as maltase and saccharase prepared from porcine intestinal mucosa (prepared in accordance with the procedure as described by B. Borgstro m and A. Dahlgvist in Acta Chem. Scand.; 12, 1997-2006, (1958)), when maltose and sucrose are used as a substrate, are determined by adding to 0.25 ml of a solution of an enzyme prepared by diluting suitably with 0.02M phosphate buffer (pH 6.8) 0.5 ml of a solution of an inhibitory substance to be tested in the same buffer and 0.25 ml of 0.05M maltose or 0.05M sucrose as the substrate in the same buffer, allowing the mixture to react at 37° C. for 10 minutes, then adding 3 ml of Glucose B-Test Reagent (a glucose oxidase reagent for measurement of glucose, produced by Wako Pure Chemical Co., Japan), further warming the mixture at 37° C. for 20 minutes, and measuring the absorbance of the reaction solution at 505 nm. […]

Row | SMILES | pIC50
1 | OC[C@@]1(O)C[C@H](NC2CCCC2O)[C@H](O)[C@@H](O)[C@@H]1O (single isomer, unassigned) [Example 38 Isomer showing [α]D^24-16.2°, N-(2-hydroxycyclopentyl)valiolamine] | 7.24
2 | OC[C@H]1C[C@H](NCC(O)COc2ccccc2)[C@H](O)[C@@H](O)[C@@H]1O (some centres unmarked) [Example 18, N-(2-hydroxy-3-phenoxypropyl)validamine] | 5.47
3 | OCC(N[C@H]1C[C@H](CO)[C@@H](O)[C@H](O)[C@H]1O)[C@@H](O)[C@H](O)[C@H](O)CO (stereo partly drawn) [Example 19, N-(D-arabino-2,3,4,5-tetrahydroxy-1-hydroxymethylpentyl)validamine] | 6.23
4 | OC[C@@]1(O)C[C@H](NC2CCCCC2)[C@H](O)[C@@H](O)[C@@H]1O [Example 37, N-cyclohexylvaliolamine] | 6.39
5 | CC(C)(C)c1cc(CN[C@H]2C[C@](O)(CO)[C@@H](O)[C@H](O)[C@H]2O)cc(C(C)(C)C)c1O [Example 40, N-(3,5,-di-tert-butyl-4-hydroxybenzyl)valiolamine] | 7.37
6 | COc1ccccc1C(O)CN[C@H]1C[C@](O)(CO)[C@@H](O)[C@H](O)[C@H]1O (stereo partly drawn) [Example 41, N-(β-hydroxy-2-methoxyphenetyl)valiolamine] | 7.20
7 | OCC(N[C@H]1C[C@H](CO)[C@@H](O)[C@H](O)[C@H]1O)c1ccccc1 (stereo partly drawn) [N-[α-(hydroxymethyl)benzyl]validamine] | 5.35

Same assay, conditions: read-out: The concentrations of 50% inhibition against maltase (substrate:maltose) IC50; Table 1; porcine intestinal mucosa maltase, substrate maltose, pH 6.8, 37° C.

Row | SMILES | pIC50
8 | CC(C)(C)c1cc(CN[C@H]2C[C@H](CO)[C@@H](O)[C@H](O)[C@H]2O)cc(C(C)(C)C)c1O | 4.44
9 | OC[C@@]1(O)C[C@H](NCC(O)c2ccccc2)[C@H](O)[C@@H](O)[C@@H]1O (single isomer, unassigned) [drawing 8] | 7.30
10 | OC[C@@]1(O)C[C@H](NCC(O)c2ccccc2)[C@H](O)[C@@H](O)[C@@H]1O (single isomer, unassigned) [drawing 9] | 8.24
11 | OCC(CO)N[C@H]1C[C@](O)(CO)[C@@H](O)[C@H](O)[C@H]1O [drawing 7] | 7.82
12 | OC[C@@]1(O)C[C@H](NCCc2ccccc2)[C@H](O)[C@@H](O)[C@@H]1O [drawing 13] | 7.00

Now from value to molecule:

Row | pIC50 | SMILES
13 | 5.77 | OC[C@H]1C[C@H](NCC(O)c2ccccc2)[C@H](O)[C@@H](O)[C@@H]1O (some centres unmarked) [drawing 10]
14 | 4.49 | OCC(N[C@H]1C[C@H](CO)[C@@H](O)[C@H](O)[C@H]1O)C(O)c1ccccc1 (some centres unmarked) [drawing 11]
15 | 7.48 | OC[C@@]1(O)C[C@H](NCC(O)COc2ccccc2)[C@H](O)[C@@H](O)[C@@H]1O (some centres unmarked) [drawing 12]
16 | 4.04 | OC[C@H]1C[C@H](NCCCc2ccccc2)[C@H](O)[C@@H](O)[C@@H]1O [drawing 14]

These molecules were tested against T1, saccharase (from porcine intestinal mucosa) (Sus scrofa, UniProt P56729) (assay: inhibitory activity against saccharase prepared from porcine intestinal mucosa (substrate sucrose)). Conditions: not given.
T1 construct: maltase and saccharase prepared from porcine intestinal mucosa; from tissue; host or cells: porcine intestinal mucosa
T1 sequence (P56729 with tags, fused parts or gaps limits assumed): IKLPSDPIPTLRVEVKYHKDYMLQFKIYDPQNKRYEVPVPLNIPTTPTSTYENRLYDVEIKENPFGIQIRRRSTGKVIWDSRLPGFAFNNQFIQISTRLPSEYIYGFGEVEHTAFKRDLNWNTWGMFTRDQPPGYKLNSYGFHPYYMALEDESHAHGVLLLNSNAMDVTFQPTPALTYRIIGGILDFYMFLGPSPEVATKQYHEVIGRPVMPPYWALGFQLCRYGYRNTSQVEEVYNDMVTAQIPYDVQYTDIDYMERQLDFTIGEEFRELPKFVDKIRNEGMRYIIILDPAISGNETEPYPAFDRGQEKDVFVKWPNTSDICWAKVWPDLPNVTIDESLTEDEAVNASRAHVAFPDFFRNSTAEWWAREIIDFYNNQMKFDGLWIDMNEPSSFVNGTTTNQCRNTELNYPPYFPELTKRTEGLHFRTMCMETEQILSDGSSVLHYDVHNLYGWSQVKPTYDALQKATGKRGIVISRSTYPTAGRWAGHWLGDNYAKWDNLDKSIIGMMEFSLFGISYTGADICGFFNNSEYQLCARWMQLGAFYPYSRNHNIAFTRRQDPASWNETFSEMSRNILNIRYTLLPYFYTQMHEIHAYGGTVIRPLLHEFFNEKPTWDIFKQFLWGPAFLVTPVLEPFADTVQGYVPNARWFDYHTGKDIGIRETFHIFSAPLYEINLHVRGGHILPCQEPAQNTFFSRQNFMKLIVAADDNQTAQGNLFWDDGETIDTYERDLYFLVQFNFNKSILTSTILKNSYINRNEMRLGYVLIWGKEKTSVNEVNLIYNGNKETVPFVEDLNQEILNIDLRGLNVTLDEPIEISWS
T1 sequence (P56729 with tags, fused parts or gaps partner limits assumed): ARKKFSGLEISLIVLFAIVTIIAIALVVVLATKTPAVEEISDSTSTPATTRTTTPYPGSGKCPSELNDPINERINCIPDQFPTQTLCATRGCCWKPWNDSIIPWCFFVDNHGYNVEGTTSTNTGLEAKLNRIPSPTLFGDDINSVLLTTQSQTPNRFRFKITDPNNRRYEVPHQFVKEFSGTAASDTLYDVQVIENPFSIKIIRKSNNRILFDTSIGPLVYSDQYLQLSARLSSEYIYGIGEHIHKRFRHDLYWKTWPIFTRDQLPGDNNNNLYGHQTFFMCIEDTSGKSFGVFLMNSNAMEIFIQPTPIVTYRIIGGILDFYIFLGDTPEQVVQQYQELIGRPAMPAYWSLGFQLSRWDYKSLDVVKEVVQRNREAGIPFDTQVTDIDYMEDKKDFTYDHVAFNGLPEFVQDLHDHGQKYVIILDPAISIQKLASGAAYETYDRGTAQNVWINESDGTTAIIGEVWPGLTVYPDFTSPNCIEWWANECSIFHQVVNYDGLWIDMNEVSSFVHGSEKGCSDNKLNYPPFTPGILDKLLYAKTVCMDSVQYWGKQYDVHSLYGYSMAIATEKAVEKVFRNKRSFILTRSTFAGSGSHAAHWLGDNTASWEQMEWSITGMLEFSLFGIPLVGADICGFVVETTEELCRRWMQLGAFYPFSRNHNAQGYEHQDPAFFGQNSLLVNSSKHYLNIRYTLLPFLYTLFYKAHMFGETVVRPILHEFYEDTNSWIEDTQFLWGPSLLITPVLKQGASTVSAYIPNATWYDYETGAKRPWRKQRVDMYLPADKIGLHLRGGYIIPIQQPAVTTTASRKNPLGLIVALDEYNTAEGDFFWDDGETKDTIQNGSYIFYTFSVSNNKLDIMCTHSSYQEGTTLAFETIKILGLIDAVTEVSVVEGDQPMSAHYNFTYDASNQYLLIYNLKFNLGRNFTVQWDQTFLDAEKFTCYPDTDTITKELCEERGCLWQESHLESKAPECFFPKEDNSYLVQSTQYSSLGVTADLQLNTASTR
Format: biochemical
Description: as §1

Row | SMILES | pIC50
17 | OCC(CO)N[C@H]1C[C@](O)(CO)[C@@H](O)[C@H](O)[C@H]1O [drawing 17] | 8.34

Same assay, conditions: IC50 (saccharase), given in the examples

Row | SMILES | pIC50
18 | OC[C@@]1(O)C[C@H](NC2CCCC2O)[C@H](O)[C@@H](O)[C@@H]1O (single isomer, unassigned) [Example 38 Isomer showing [α]D^24 +40.4°, N-(2-hydroxycyclopentyl)valiolamine] | 6.89
19 | OC[C@@]1(O)C[C@H](NC2CCCC2O)[C@H](O)[C@@H](O)[C@@H]1O (single isomer, unassigned) [Example 38 Isomer showing [α]D^24-16.2°, N-(2-hydroxycyclopentyl)valiolamine] | 7.62
20 | OC[C@H]1C[C@H](NC2CCCCC2O)[C@H](O)[C@@H](O)[C@@H]1O (some centres unmarked) [Example 20, N-(2-hydroxycyclohexyl)validamine] | 7.02
21 | OC[C@H]1C[C@H](NC2CCCC2O)[C@H](O)[C@@H](O)[C@@H]1O (some centres unmarked) [Example 21, N-(2-hydroxycyclopentyl)validamine] | 6.89
22 | OC[C@@]1(O)C[C@H](NC2CCCC2)[C@H](O)[C@@H](O)[C@@H]1O [Example 39, N-cyclopentylvaliolamine] | 7.60

Same assay, conditions: Table 2; porcine intestinal mucosa saccharase, substrate sucrose, pH 6.8, 37° C.

Row | SMILES | pIC50
23 | OC[C@@]1(O)C[C@H](NCC2CCCCC2)[C@H](O)[C@@H](O)[C@@H]1O | 8.03
24 | CC(C)=CCC/C(C)=C/CN[C@H]1C[C@](O)(CO)[C@@H](O)[C@H](O)[C@H]1O | 7.96
25 | OCC(O)C(O)C(O)C(O)CN[C@H]1C[C@](O)(CO)[C@@H](O)[C@H](O)[C@H]1O (some centres unmarked) | 7.44
26 | OC[C@@]1(O)C[C@H](NCc2ccc(Br)cc2)[C@H](O)[C@@H](O)[C@@H]1O | 7.82
27 | OCC1(O)CC(NCc2ccco2)C(O)C(O)C1O (centres unmarked) | 7.82
28 | OC[C@@]1(O)C[C@H](NCCc2ccccc2)[C@H](O)[C@@H](O)[C@@H]1O [drawing 26] | 8.64

The remaining lines, values ahead:

Row | pIC50 | SMILES
29 | 7.72 | OC[C@@]1(O)C[C@H](NCC(O)c2ccccc2)[C@H](O)[C@@H](O)[C@@H]1O (single isomer, unassigned) [drawing 18]
30 | 8.54 | OC[C@@]1(O)C[C@H](NCC(O)c2ccccc2)[C@H](O)[C@@H](O)[C@@H]1O (single isomer, unassigned) [drawing 19]
31 | 8.07 | OC[C@@]1(O)C[C@H](NCC(O)COc2ccccc2)[C@H](O)[C@@H](O)[C@@H]1O (some centres unmarked) [drawing 20]
32 | 5.72 | OC[C@H]1C[C@H](NCCCc2ccccc2)[C@H](O)[C@@H](O)[C@@H]1O [drawing 24]
33 | 7.66 | OC[C@H]1C[C@H](NCC(O)c2ccccc2)[C@H](O)[C@@H](O)[C@@H]1O (some centres unmarked) [drawing 32]
34 | 6.59 | OCC(N[C@H]1C[C@H](CO)[C@@H](O)[C@H](O)[C@H]1O)C(O)c1ccccc1 (some centres unmarked) [drawing 33]

Same assay, conditions: given in the examples; read-out: IC50 (saccharase)

Row | SMILES | pIC50
35 | CC(C)=CCC/C(C)=C/CN[C@H]1C[C@H](CO)[C@@H](O)[C@H](O)[C@H]1O [Example 12, N-geranylvalidamine sulfate] | 6.10
36 | OCC(N[C@H]1C[C@H](CO)[C@@H](O)[C@H](O)[C@H]1O)[C@@H](O)[C@H](O)[C@@H](O)CO (stereo partly drawn) [Example 16, N-(L-xylo-2,3,4,5-tetrahydroxy-1-hydroxymethylpentyl)validamine] | 7.10
37 | OC[C@@]1(O)C[C@H](NC2CCCCC2)[C@H](O)[C@@H](O)[C@@H]1O [Example 37, N-cyclohexylvaliolamine] | 7.82
38 | CC(C)(C)c1cc(CN[C@H]2C[C@](O)(CO)[C@@H](O)[C@H](O)[C@H]2O)cc(C(C)(C)C)c1O [Example 40, N-(3,5,-di-tert-butyl-4-hydroxybenzyl)valiolamine] | 8.17
39 | COc1ccccc1C(O)CN[C@H]1C[C@](O)(CO)[C@@H](O)[C@H](O)[C@H]1O (stereo partly drawn) [Example 41, N-(β-hydroxy-2-methoxyphenetyl)valiolamine] | 8.00

The molecules below were run on α-glucoside hydrolase (assay: α-glucosidase inhibitory activity (general statement)). Conditions: statement in words.
Format: biochemical

Row | SMILES | α-glucosidase inhibitory activity
40 | N[C@H]1C[C@H](CO)[C@@H](O)[C@H](O)[C@H]1O [validamine] | possesses a highly valuable action of suppressing the function of α-glucoside hydrolase
41 | N[C@H]1C[C@](O)(CO)[C@@H](O)[C@H](O)[C@H]1O [valiolamine, 1L(1S)-(1(OH),2,4,5/1,3)-5-amino-1-hydroxymethyl-1,2,3,4-cyclohexanetetrol] | α-glucosidase inhibitory activity
